{"source": "ChEMBL document CHEMBL1201862", "about": "“PubChem BioAssay data set” (2004)", "key": {"[1]": {"test": "A cytotoxicity screen of small molecule inhibitors of the PhoP region in Salmonella typhi identified in the primary screen. [Related pubchem assays: 1850, 1864, 1985 ]", "format": "functional"}, "Cytochrome P450 2C19": {"biological_target": "Cytochrome P450 2C19 (Homo sapiens, UniProt P33261)", "sequence (P33261 whole entry)": "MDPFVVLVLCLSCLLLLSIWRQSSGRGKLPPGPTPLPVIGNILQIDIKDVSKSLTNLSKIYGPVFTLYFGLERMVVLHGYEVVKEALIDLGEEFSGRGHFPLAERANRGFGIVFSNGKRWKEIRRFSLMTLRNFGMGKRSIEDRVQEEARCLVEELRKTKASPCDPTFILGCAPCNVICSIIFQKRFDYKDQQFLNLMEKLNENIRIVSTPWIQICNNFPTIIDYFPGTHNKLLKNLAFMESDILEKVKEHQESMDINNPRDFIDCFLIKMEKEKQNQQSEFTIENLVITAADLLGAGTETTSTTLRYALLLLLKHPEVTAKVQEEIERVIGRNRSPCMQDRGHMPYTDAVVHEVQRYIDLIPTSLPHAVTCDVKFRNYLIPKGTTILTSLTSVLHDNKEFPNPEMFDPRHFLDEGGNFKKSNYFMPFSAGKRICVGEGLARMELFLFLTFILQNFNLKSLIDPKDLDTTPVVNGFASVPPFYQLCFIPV", "test": "Cytochrome panel assay with activity outcomes. Panel member name: p450-cyp2c19 Compounds with AC50 equal or less than 10 uM are considered active", "format": "functional", "settings": "read-out: AC50"}, "X-box-binding protein 1": {"biological_target": "X-box-binding protein 1 (Homo sapiens, UniProt P17861)", "sequence (P17861 whole entry)": "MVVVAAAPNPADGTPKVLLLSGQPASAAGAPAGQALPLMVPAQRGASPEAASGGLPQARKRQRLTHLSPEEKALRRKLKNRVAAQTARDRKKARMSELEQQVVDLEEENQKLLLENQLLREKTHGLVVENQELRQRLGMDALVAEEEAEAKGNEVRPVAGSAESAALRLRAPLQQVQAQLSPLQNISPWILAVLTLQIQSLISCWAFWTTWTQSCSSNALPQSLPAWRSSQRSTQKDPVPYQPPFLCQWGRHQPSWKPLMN", "format": "functional, Cricetulus griseus"}, "Vero": {"tested_on": "Vero", "test": "viability of Vero cells under compound – cytotoxicity control for flavivirus capping enzyme inhibitors (AID 588742)", "format": "functional", "settings": "Chlorocebus sabaeus"}, "[2]": {"tested_on": "Streptococcus sp. 'group A'", "test": "Streptococcus pyogenes SK(-)GAS viability under kanamycin – luminescence, BacTiterGlo, confirmation, counter-screen for streptokinase expression inhibitor project, dose response (AID 1900)", "format": "functional, organism-based"}, "[3]": {"biological_target": "T1, Alkaline phosphatase, tissue-nonspecific isozyme (Homo sapiens, UniProt P05186)", "T1 sequence (P05186 whole entry)": "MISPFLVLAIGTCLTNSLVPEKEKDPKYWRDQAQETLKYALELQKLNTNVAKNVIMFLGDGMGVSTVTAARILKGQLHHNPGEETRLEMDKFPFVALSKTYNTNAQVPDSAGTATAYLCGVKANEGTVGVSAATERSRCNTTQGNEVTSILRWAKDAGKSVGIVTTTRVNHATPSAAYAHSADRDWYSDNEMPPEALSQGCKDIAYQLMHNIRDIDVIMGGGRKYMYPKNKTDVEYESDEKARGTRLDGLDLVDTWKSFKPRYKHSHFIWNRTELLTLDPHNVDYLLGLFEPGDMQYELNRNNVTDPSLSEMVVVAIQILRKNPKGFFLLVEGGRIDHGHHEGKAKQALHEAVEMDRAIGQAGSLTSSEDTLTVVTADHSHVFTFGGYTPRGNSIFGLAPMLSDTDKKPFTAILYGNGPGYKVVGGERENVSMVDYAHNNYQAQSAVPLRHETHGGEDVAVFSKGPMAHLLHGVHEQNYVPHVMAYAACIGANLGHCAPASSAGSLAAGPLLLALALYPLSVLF"}, "Streptococcus": {"tested_on": "Streptococcus", "test": "GAS UMAA2166 growth inhibition – luminescence, BacTiterGlo, counter-screen for streptokinase expression inhibitor project, dose response (AID 1915);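 further: potency for reduction of bacterial viability or growth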", "format": "functional, organism-based"}, "Genome polyprotein": {"biological_target": "Genome polyprotein (dengue virus type 2, UniProt P29990)", "sequence (P29990 2492-3391 limits assumed)": "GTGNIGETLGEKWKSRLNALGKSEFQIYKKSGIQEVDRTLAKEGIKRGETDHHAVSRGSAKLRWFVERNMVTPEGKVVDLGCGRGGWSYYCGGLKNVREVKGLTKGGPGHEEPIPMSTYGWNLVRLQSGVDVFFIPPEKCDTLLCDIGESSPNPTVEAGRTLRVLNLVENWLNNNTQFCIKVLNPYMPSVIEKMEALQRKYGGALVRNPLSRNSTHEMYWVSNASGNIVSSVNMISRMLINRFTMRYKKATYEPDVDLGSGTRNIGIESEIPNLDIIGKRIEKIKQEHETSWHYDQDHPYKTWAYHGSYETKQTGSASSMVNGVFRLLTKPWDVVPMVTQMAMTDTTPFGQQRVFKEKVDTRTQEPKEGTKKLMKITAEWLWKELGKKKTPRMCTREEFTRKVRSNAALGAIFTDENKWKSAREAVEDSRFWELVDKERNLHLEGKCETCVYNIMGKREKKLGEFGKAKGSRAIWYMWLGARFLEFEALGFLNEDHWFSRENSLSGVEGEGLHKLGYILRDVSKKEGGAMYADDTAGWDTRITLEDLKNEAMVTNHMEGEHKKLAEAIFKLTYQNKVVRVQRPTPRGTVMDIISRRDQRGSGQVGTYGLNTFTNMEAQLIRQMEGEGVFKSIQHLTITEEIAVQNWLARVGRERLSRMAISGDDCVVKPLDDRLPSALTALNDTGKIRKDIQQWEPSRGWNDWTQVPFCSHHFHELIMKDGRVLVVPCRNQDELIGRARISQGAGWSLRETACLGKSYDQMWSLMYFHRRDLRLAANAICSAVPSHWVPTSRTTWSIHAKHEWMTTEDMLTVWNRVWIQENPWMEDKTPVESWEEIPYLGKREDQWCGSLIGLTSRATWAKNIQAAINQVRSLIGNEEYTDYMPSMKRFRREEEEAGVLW", "test": "flavivirus cap methylation enzyme inhibition – biochemical, confirmation dose response, primary screen (AID 588689)", "format": "functional"}, "[4]": {"biological_target": "T2, Aryl hydrocarbon receptor (Homo sapiens, UniProt P35869)", "T2 sequence (P35869 whole entry)": "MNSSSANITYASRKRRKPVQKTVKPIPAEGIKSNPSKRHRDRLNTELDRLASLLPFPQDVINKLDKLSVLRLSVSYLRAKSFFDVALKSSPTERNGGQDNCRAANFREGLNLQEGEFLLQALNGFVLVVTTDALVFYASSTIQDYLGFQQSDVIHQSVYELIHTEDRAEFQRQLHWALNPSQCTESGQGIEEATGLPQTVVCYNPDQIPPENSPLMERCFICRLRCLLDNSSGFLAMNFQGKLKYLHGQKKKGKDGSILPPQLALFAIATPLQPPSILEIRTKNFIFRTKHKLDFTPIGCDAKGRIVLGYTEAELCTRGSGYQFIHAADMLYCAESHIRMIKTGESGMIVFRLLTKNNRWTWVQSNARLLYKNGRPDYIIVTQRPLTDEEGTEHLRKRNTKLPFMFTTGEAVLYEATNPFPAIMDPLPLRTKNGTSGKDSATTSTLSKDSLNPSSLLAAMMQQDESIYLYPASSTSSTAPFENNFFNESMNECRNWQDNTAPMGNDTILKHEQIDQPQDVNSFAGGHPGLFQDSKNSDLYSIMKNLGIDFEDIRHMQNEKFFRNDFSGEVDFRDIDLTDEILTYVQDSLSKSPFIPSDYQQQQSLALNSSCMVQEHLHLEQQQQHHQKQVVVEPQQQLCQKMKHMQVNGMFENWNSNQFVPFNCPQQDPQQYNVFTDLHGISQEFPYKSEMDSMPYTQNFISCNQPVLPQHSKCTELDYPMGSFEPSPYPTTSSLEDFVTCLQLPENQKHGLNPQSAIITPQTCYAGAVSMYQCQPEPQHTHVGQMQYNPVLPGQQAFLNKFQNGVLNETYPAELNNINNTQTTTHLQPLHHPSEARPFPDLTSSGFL", "test": "Luminescence-based cell-based high throughput dose response assay for activators of the Aryl Hydrocarbon Receptor (AHR). [Related pubchem assays: 2796 (Primary screen (AHR activators in singlicate)), 2845 (Confirmation screen (AHR activators in triplicate)), 434939 (Counterscreen (PXR activators in triplicate)), 2804 (Summary (AHR activators))]", "format": "ADME"}, "[5]": {"test": "Trypanosoma cruzi growth suppression in host cells – NIH3T3 host cells, beta-gal luminescence, confirmation (AID 2044);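 further: intracellular parasites grown in NIH/3T3 mouse fibroblasts as host cells; luminescent beta-galactosidase reporter signal from transgenic T. cruzi replicating inside host cells; inhibitors lower the luminescence signal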", "format": "functional, cell-based"}, "[6]": {"test": "NIH3T3 cell viability loss – ATP luminescence, mouse fibroblasts, counter-screen, dose response (AID 2010);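 further: cells exposed to compound for about 90 hours before reading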", "format": "functional, cell-based"}, "[7]": {"test": "A Cell Based Secondary Assay To Explore Cytotoxicity of Compounds that Sensitize Mycobacterium Tuberculosis to Beta-Lactam Antibiotics.", "format": "functional"}}, "note": "The source made the active and inactive calls.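 Wherever Absolute IC50 (XBP1) is given: confirmatory dose-response counter-screen serving a CHOP assay.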"}
{"smiles": "Clc1ccc2[nH]c(N3CCCCC3)nc2c1", "values": [{"measurement": "EC50", "setting": "[1]", "value": "> 50 µM (active)"}]}
{"smiles": "CCOC(=O)c1[nH]c2ccc(Cl)cc2c1-c1ccccc1", "values": [{"measurement": "AC50", "setting": "Cytochrome P450 2C19", "value": "4.47 µM (inconclusive)"}, {"measurement": "Absolute IC50 (XBP1)", "setting": "X-box-binding protein 1", "value": 10, "unit": "µM"}]}
{"smiles": "Cc1ccc(C2CC(=O)NC(SCCC(C)C)=C2C#N)cc1", "note": "(stereo not given)", "values": [{"measurement": "EC50", "setting": "[1]", "value": "> 50 µM (active)"}]}
{"smiles": "Fc1cccc2sc(Nc3nnc(-c4ccccc4)o3)nc12", "values": [{"measurement": "CC50", "setting": "Vero", "value": "27 µM (active)"}, {"measurement": "EC50", "setting": "[2]", "value": "2 µM (active)"}, {"measurement": "EC50", "setting": "[3]", "value": "44.2 µM (active)"}, {"measurement": "EC50", "setting": "Streptococcus", "value": "6.97 µM (active)"}, {"measurement": "IC50", "setting": "Genome polyprotein", "value": "50.2 µM (active)"}]}
{"smiles": "Cc1nc(Cl)sc1C(=O)Nc1ccc(C(F)(F)F)cc1", "values": [{"measurement": "EC50", "setting": "[4]", "value": "1.57 µM (active)"}]}
{"smiles": "CCOc1cc(S(=O)(=O)Nc2cc(C)cc(C)c2)ccc1Cl", "values": [{"measurement": "Absolute IC50 (XBP1)", "setting": "X-box-binding protein 1", "value": 10, "unit": "µM"}]}
{"smiles": "Cc1ccc(CN2CCSc3ccc(C(=O)NC4CCN(Cc5ccccc5)CC4)cc32)cc1", "values": [{"measurement": "EC50", "setting": "[5]", "value": "1.37 µM (active)"}, {"measurement": "EC50", "setting": "[6]", "value": "> 60 µM (not active)"}, {"measurement": "CC50", "setting": "[7]", "value": "> 40 µM (active)"}]}
{"smiles": "CCN(CC)C(=O)C1CCCN(c2ccc([N+](=O)[O-])cc2/C=N/NC(=O)c2cccc([N+](=O)[O-])c2)C1", "note": "(stereo not given)", "values": [{"measurement": "CC50", "setting": "[7]", "value": "> 40 µM (active)"}]}
